Source: patent US7749316B2, “Water-based inks for ink-jet printing” (Kao Corporation, priority 2006, dated 2010)

Columns and labels:
[1] = Surface tension of water containing nonionic organic compound; type: physicochemical; conditions: 0.001 g of compound in 100 g of water, 25° C.
Excerpt: The lower limit of the surface tension is preferably 40 mN/m or more.

[2] = Solubility of nonionic organic compound in water; conditions: for solubility in 100 g of water: in 100 g of water as measured at 25° C.; for Solubility of nonionic organic compound: saturated solubility in 100 g of water, 25° C.
Description: The solubility is expressed by a saturated solubility of the nonionic organic compound in 100 g of water. The stirring for the measurement was conducted within 1 h.

| Structure (SMILES) | Surface tension of water containing nonionic organic compound [1] [mN/m] | solubility in 100 g of water [2] [g] | Solubility of nonionic organic compound [2] [g/100 g] | Surface tension of water containing nonionic organic compound ([1]; listed as lauric acid monoglyceride) [mN/m] |
| --- | --- | --- | --- | --- |
| CCCCCCCCCC(=O)OCC(O)CO (centres unmarked) [decanoic acid monoglyceride] | 65 | – | – | – |
| CCCCCCCCC(O)CO (centres unmarked) [1,2-decanediol] | 55 | 0.055 | – | – |
| CCCCCCC(O)CO (centres unmarked) [1,2-octanediol] | 65 | 0.20 | – | – |
| CCCCC(CC)COCC(O)CO (centres unmarked) [2-ethylhexyl glyceryl ether] | 62 | 0.15 | – | – |

Other lines, results leading:

| Surface tension of water containing nonionic organic compound [1] [mN/m] | solubility in 100 g of water [2] [g] | Solubility of nonionic organic compound [2] [g/100 g] | Surface tension of water containing nonionic organic compound ([1]; listed as lauric acid monoglyceride) [mN/m] | Structure (SMILES) |
| --- | --- | --- | --- | --- |
| 47.1 | 0.001 | 0.001 | – | CCCCCCCCCCC(O)CO (centres unmarked) [PO-1, 1,2-Dodecanediol] |
| 57.8 | 0.05 | 0.05 | – | CC(C)CCCCCCCOCC(O)CO (centres unmarked) [PO-3, Isodecyl monoglyceryl ether] |
| 65 | 0.005 | 0.15 | 63 | CCCCCCCCCCCC(=O)OCC(O)CO (centres unmarked) [PO-2, Dodecanoic acid monoglyceride] |
